Measured values from PubChem BioAssay (NCI).
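Grown in 96-well plates, cells were treated for 48 hours with each compound at five concentrations. Insufficient inhibition: endpoint recorded as highest concentration tested. TGI is the concentration that stops growth completely.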

What was measured:
Experiment in all cases: DTP human tumour cell line panel, 48 h
[1] = tested on: NCI-H522 lung
[2] = tested on: UACC-62 melanoma
[3] = tested on: HOP-92 NSCLC
[4] = tested on: ACHN renal
[5] = tested on: A549 NSCLC
[6] = tested on: MALME-3M melanoma
[7] = tested on: SK-MEL-5 melanoma
[8] = tested on: U251 CNS
[9] = tested on: BT-549 breast
[10] = tested on: SNB-19 CNS
[11] = tested on: HCC-2998 colon
[12] = tested on: COLO 205 colon
[13] = tested on: PC-3 prostate
[14] = tested on: HL-60(TB) leukemia
[15] = tested on: RPMI-8226 leukemia
[16] = tested on: SF-295 CNS
[17] = tested on: MDA-MB-435
[18] = tested on: SNB-75 CNS
[19] = tested on: MDA-MB-231 breast
[20] = tested on: OVCAR-5 ovarian

SMILES | TGI [1] [µM] | TGI [2] [µM] | TGI [3] [µM] | TGI [4] [µM] | TGI [5] [µM] | TGI [6] [µM] | TGI [7] [µM] | TGI [8] [µM] | TGI [9] [µM] | TGI [10] [µM] | TGI [11] [µM] | TGI [12] [µM] | TGI [13] [µM] | TGI [14] [µM] | TGI [15] [µM] | TGI [16] [µM] | TGI [17] [µM] | TGI [18] [µM] | TGI [19] [µM] | TGI [20] [µM]
COc1cc(C2c3cc4c(cc3OC(N3CCCC3)C2C)OCO4)cc(OC)c1O (stereo not given) | 19.1 | > 61.6 | > 78.5 | > 100 | > 100 | > 66 | 40.5 | 42.6 | 53.2 | 38.9 | > 94.3 | 63 | > 80.6 | > 92.7 | > 100 | 22.3 | 15.2 | 24.5 | > 93.3 | > 100
COc1cc(/C=C2\CCC(C)C3C2=NN(C(C)=O)C3c2cc(OC)c(OC)c(OC)c2)cc(OC)c1OC (stereo not given) | 22.2 | > 100 | > 100 | > 100 | > 100 | > 100 | > 100 | > 100 | > 100 | > 100 | > 100 | > 100 | > 100 | > 100 | > 100 | > 100 | > 100 | > 54.6 | > 100 | > 36.3
O=C(O)/C=N\Nc1nc2ccccc2[nH]1 | > 100 | > 100 | > 100 | > 100 | > 100 | > 100 | > 100 | > 100 | > 100 | > 100 | > 100 | > 100 | > 100 | > 100 | > 100 | > 100 | > 100 | > 100 | > 100 | > 100
O=Cc1ccc2c(c1)CC1(C2)Cc2ccc3c(c2C1)CCC3 (stereo not given) | > 83.6 | 18.8 | > 48.3 | > 100 | > 100 | 21.8 | 15.9 | 22.7 | 18.6 | 21 | > 60.3 | 43.7 | 18.2 | > 26.9 | 27.9 | 19.5 | 7.4 | 28.9 | 14.2 | > 69.2
Cc1cc(C)c(S(=O)(=O)N2CCCN(S(=O)(=O)c3c(C)cc(C)cc3C)OCCCON(S(=O)(=O)c3c(C)cc(C)cc3C)CCCN(S(=O)(=O)c3c(C)cc(C)cc3C)OCCCO2)c(C)c1 | > 100 | > 100 | > 100 | > 100 | > 100 | > 100 | > 100 | > 100 | > 100 | > 100 | > 100 | > 100 | > 100 | > 100 | > 100 | > 100 | > 100 | > 100 | > 100 | > 100
CC(C)(Cc1ccccc1)NC1=NCCO1 | > 100 | > 100 | > 100 | > 100 | > 100 | > 100 | > 100 | > 100 | > 100 | > 100 | > 100 | > 100 | > 100 | > 100 | > 100 | > 100 | > 100 | > 100 | > 100 | > 100
NS(=O)(=O)c1nn2c(Br)c(-c3ccccc3)nc2s1 | 3.55 | 15.4 | 22.4 | 15.2 | 21.6 | 13.7 | 6.48 | 15.6 | 7.69 | 22.8 | 16.7 | 18.4 | 18.5 | 36.4 | 15.5 | 22.6 | 16.3 | 19.5 | 15.9 | 24.3
CC1(CCCO)CCCCCC(C)(CCCO)C1=O (stereo not given) | > 100 | > 100 | > 100 | > 100 | > 100 | > 100 | > 100 | > 100 | > 100 | > 100 | > 100 | > 100 | > 100 | > 100 | > 100 | > 100 | > 100 | > 100 | > 100 | > 100
COc1ccc2nc3ccc(OC)cc3c(S(=O)CCCl)c2c1 (stereo not given) | 3.23 | 32.1 | 10.8 | 3.62 | 48 | 3.57 | 28.2 | > 52.2 | 30.3 | > 59.3 | 46.7 | 3.13 | 23.4 | 6.86 | 4.9 | 45.2 | 17.1 | 33.1 | 11.8 | 34.5
O=[N+]([O-])c1cc2oc(COc3ccccc3)nc2cc1Cl | 46.3 | 41.4 | > 100 | > 100 | > 100 | 94.5 | 25.5 | 52.5 | 60 | > 100 | 43.3 | 36.6 | > 100 | > 100 | > 100 | 38.8 | 52.4 | 58 | 69.4 | > 100
